What was measured:
[1] = test system: […] (SEQ ID NO: 3) amyloid peptide; assay: Coordination at higher peptide concentration (amyloid gel, 5 mg/mL), inhibitor capturing; assay type: binding; settings: for capturing efficiency: relative to 2nd pellet wash, UV-Vis; for AD compound captured, Wash 1 / AD compound captured, Wash 2 / AD compound captured, Wash 3: 1000 μM inhibitor solution added; for AD compound captured, Wash 1: 1st pellet wash; for AD compound captured, Wash 2: 2nd pellet wash; for AD compound captured, Wash 3: 3rd pellet wash
Method: Amyloid Fibrils Preparation and Characterization. For the formation of fibrils, the amyloid peptides were dispersed in DI water at a 10 mg/ml, vortexed, heated at 60° C. for 30 sec, and sonicated for 15 mins (this cycle was repeated 10 times overall), and finally left overnight at room temperature to form a hydrogel. […] That was confirmed with Field Emission Scanning Electron Microscopy (FESEM) and Congo Red staining (CR).
Coordination Studies at Higher Peptide Concentrations and Inhibitor Capturing. […] (SEQ ID NO: 4) or […] (SEQ ID NO: 3) amyloid peptide gels (10 mg/mL, 1 mL volume) and was left to physically complex under stirring overnight (the final peptide concentration was diluted to 5 mg/mL). A control using 1 mL of 0.1 M PBS (no inhibitor) was also prepared. The complexed amyloid/inhibitor materials were then transferred to 5 mL conical Eppendorf tubes, and centrifuged for 15 mins at 4,400 rpm (14° C.). The supernatant was decanted, and 2 mL of DI water were subsequently added to wash the pellet (followed by vortexing until obtaining a homogenous dispersion) in order to remove any unbound inhibitor. The samples were then centrifuged again at the same conditions so as to pelletize the amyloid materials, and the supernatant was decanted. Another 2 mL of DI water were then added into the pellet, the mixture was vortexed, and the physically bound inhibitor into the amyloid peptides was quantified by UV-Vis between 200-600 nm and MS. This step is denoted as wash 1 in our study. Two additional pellet purification cycles were realized with replacement of the decanted volume each time with 2 mL of fresh DI water (denoted as wash 2 and wash 3 respectively). The inhibitor-containing amyloid peptides were normalized at 400 nm over the respective no inhibitor-containing ones at the specific washing step.

[2] = test system: […] (SEQ ID NO: 4) amyloid peptide; assay: Incubation of amyloid gel containing inhibitor in PBS at 37° C., drug retained; assay type: binding; settings: YFTGAIIGNFY 5 mg/mL; for AD compound captured after incubation, Wash 2: 2nd pellet wash; for AD compound captured after incubation, Wash 3: 3rd pellet wash
Method: Incubation of Amyloid Gels-Containing Inhibitors in PBS at 37° C. […] (SEQ ID NO: 4) amyloid gels were prepared at 10 mg/mL (1 mL) and a 0.1 M PBS solution of Donepezil was added at 1000 μM (1 mL) and was left to stir overnight (the final peptide concentration was diluted to 5 mg/mL). A control of 1 mL 0.1 M PBS was also prepared. The complexed amyloid/inhibitor was sequentially centrifuged, and the same volume of water (2 mL) was added in the pellet to wash it (followed by vortexing until obtaining a complete dispersion) and remove the unbound inhibitor (wash 1). The sample was centrifuged, the pellet was isolated, and 2 mL of 0.1 M PBS was added, followed by overnight incubation under stirring at 37° C. The inhibitor-containing peptide was then pelletized, the supernatant was decanted, and the peptide/inhibitor dispersion was quantified after addition of 2 mL water (wash 2). A second washing step with 2 mL fresh water was subsequently realized and the pellet was quantified again (wash 3). Example 2: Coordination of the Designed Amyloid Peptides with AD drugs in Dilute Solution.

[3] = FYTGAIIGNYF gel 5 mg/mL, by UV-Vis
[4] = incubated at 37° C. in PBS for one day after wash 1, by MS
[5] = incubated at 37° C. in PBS for one day after wash 1, by UV-Vis

COc1cc2c(cc1OC)C(=O)C(CC1CCN(Cc3ccccc3)CC1)C2 (stereo not drawn) [donepezil]
capturing efficiency ([1]; FYTGAIIGNYF 5 mg/mL): 17%
AD compound captured, Wash 1 ([1]; FYTGAIIGNYF gel 5 mg/mL, by MS): 163 ± 4 µM
AD compound captured, Wash 2 ([1]; FYTGAIIGNYF gel 5 mg/mL, by MS): 151 ± 1 µM
AD compound captured, Wash 3 ([1]; FYTGAIIGNYF gel 5 mg/mL, by MS): 148 ± 3 µM
AD compound captured, Wash 1 [1, 3]: 187 ± 19 µM
AD compound captured, Wash 2 [1, 3]: 173 ± 33 µM
AD compound captured, Wash 3 [1, 3]: 160 ± 33 µM
AD compound captured after incubation, Wash 2 [2, 4]: 128 ± 12 µM
AD compound captured after incubation, Wash 3 [2, 4]: 120 ± 18 µM
AD compound captured after incubation, Wash 2 [2, 5]: 121 ± 25 µM
AD compound captured after incubation, Wash 3 [2, 5]: 110 ± 31 µM

Nc1c2c(nc3ccccc13)CCCC2 [tacrine]
capturing efficiency ([1]; […] 5 mg/mL): approximately 8%
AD compound captured, Wash 1 ([1]; […] gel 5 mg/mL, by MS): 114 ± 6 µM
AD compound captured, Wash 2 ([1]; […] gel 5 mg/mL, by MS): 102 ± 2 µM
AD compound captured, Wash 3 ([1]; […] gel 5 mg/mL, by MS): 94 ± 10 µM
AD compound captured, Wash 1 ([1]; […] gel 5 mg/mL, by UV-Vis): 104 ± 16 µM
AD compound captured, Wash 2 ([1]; […] gel 5 mg/mL, by UV-Vis): 82 ± 9 µM
AD compound captured, Wash 3 ([1]; […] gel 5 mg/mL, by UV-Vis): 72 ± 10 µM
